Assay results published in ChEMBL document CHEMBL1136160, “Design, synthesis and evaluation of novel azasugar-based MMP/ADAM inhibitors” (Bioorg Med Chem Lett, 2003).

Experiments:
Interstitial collagenase [1] = molecular target: T1, Interstitial collagenase (Homo sapiens, UniProt P03956); assay: Inhibition of Recombinant human matrix metalloprotease-1
T1 sequence (P03956 whole entry): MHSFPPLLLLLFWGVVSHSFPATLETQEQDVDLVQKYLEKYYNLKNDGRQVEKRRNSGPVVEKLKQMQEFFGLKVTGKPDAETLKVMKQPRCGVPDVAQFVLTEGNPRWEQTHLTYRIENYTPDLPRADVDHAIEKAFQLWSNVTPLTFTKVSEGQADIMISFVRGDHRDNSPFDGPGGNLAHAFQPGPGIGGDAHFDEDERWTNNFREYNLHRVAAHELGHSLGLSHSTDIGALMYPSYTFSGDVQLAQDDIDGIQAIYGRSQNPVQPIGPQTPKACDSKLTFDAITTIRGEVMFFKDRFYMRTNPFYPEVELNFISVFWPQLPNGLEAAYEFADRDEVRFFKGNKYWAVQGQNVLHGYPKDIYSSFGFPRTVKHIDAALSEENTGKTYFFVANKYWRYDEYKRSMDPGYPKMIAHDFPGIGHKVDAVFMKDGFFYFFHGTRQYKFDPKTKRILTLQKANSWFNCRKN

[2] = molecular target: Disintegrin and metalloproteinase domain-containing protein 17 (Homo sapiens, UniProt P78536); assay: Inhibition of recombinant human tumor necrosis factor-alpha converting enzyme
Chain of Disintegrin and metalloproteinase domain-containing protein 17 (P78536 whole entry, the tested form may be a part): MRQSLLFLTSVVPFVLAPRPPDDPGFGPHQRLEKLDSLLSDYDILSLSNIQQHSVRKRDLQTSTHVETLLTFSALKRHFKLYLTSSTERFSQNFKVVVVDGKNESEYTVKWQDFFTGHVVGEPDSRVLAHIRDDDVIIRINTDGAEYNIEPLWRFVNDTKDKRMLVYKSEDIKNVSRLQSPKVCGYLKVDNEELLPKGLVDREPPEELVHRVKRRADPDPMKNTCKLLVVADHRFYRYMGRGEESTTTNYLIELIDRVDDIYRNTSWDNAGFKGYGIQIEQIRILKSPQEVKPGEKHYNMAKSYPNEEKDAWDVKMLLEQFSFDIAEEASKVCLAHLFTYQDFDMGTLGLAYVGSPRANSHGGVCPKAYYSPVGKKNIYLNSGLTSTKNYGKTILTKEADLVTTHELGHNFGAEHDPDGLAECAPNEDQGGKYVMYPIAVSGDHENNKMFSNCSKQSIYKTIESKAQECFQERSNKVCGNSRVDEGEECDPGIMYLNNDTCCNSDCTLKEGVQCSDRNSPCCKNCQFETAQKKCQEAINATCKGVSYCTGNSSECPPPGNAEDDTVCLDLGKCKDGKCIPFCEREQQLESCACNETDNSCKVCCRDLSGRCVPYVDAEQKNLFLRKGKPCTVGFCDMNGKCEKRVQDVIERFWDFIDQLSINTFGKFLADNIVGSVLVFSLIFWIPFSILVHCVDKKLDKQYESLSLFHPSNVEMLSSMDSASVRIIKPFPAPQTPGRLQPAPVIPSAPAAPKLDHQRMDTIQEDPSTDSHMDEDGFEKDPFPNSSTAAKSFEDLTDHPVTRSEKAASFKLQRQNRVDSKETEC

[3] = molecular target: Matrix metalloproteinase-9 (Homo sapiens, UniProt P14780); assay: Inhibition of recombinant human matrix metalloprotease-9 (gelatinase B)
Chain of Matrix metalloproteinase-9 (P14780 whole entry): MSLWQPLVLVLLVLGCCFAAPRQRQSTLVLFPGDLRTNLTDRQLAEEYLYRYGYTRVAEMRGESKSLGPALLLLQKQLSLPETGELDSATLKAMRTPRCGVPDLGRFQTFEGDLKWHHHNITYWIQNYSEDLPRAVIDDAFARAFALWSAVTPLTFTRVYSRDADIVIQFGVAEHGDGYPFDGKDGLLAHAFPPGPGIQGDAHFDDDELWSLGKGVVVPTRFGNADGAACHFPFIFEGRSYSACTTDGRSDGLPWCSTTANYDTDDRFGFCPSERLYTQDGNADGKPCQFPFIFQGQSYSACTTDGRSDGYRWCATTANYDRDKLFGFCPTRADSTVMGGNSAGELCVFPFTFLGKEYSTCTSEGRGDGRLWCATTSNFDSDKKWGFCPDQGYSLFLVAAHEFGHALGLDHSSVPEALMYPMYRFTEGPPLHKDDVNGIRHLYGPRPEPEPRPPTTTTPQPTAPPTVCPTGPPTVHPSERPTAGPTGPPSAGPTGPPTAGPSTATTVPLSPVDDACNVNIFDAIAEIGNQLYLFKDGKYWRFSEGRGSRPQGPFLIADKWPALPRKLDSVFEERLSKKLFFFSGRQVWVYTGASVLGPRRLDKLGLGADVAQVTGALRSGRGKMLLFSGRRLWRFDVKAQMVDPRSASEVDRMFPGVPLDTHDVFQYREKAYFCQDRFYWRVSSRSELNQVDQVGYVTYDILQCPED

Stromelysin-1 = Stromelysin-1 (Homo sapiens, UniProt P08254); assay: Inhibition of recombinant human matrix metalloprotease-3
Chain of Stromelysin-1 (P08254 whole entry): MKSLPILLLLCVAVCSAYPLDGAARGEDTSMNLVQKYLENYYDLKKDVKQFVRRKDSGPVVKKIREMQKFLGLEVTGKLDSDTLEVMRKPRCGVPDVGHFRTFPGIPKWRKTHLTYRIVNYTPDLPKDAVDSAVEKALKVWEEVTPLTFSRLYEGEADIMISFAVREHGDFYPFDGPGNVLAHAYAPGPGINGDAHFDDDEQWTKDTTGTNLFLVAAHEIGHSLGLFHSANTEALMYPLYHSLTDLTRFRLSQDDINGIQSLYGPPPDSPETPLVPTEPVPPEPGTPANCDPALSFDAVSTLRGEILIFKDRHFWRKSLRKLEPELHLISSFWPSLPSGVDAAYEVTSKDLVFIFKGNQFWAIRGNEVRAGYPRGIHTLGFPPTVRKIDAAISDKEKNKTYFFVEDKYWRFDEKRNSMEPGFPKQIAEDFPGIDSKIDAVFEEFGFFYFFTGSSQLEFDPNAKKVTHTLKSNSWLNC

Interstitial collagenase [4] = molecular target: T1, Interstitial collagenase; assay: Inhibition of recombinant human matrix metalloprotease-1

| Ki (Interstitial collagenase [1]) | Ki [3] | Ki (Stromelysin-1) | Ki (Interstitial collagenase [4]) | SMILES | Ki [2] |
| --- | --- | --- | --- | --- | --- |
| 162 nM | 47 nM | 50 nM | – | COc1ccc(S(=O)(=O)N2C[C@@H]3OC(C)(C)O[C@H]3[C@@H](OC(C)=O)[C@@H]2C(=O)NO)cc1 | 21 nM |
| 26 nM | 21 nM | 3.7 nM | – | COc1ccc(S(=O)(=O)N2C[C@@H]3OC(C)(C)O[C@H]3[C@@H](O)[C@@H]2C(=O)NO)cc1 | 40 nM |
| – | 310 nM | 44 nM | 554 nM | COc1ccc(S(=O)(=O)N2C[C@H](O)[C@H]3OC(C)(C)O[C@H]3[C@@H]2C(=O)NO)cc1 | 22 nM |
